Four compounds from patent publication US6924279B2, “Crystalline 1-methylcarbapenem derivatives” (Sankyo Company, Limited, priority 1999, dated 2005) can be followed below.

Structures are written as SMILES. Where two headings read alike, the source gives them in different places.

Data set [1] is described as follows: Stability test in desiccator at 40° C. and 75% relative humidity (HPLC remaining amount). Format: physicochemical. The method, then:
(§1) The crystalline compounds obtained in Example 1, 2, 4 and 5 were kept for about 2 months in a desiccator at 40° C. and 75% relative humidity and in a desiccator at 60° C. in which silica gel was placed, respectively. The non-crystalline powdered compound (lyophilized product) obtained according to the procedure described in U.S. Pat. No. 6,090,802 Example 72 and in Japanese Patent Application Publication No. Hei-11-071277, which is a reference sample, was kept under the same conditions described above. The remaining amount of the crystalline compounds and the non-crystalline powdered compound were determined after 7, 20, 21, 28, and 56 days by high pressure liquid chromatography on a L-Column ODS (4.6 mm Φ×150 mm, (trade mark) manufactured by Kagakuhinn kennsa kyoukai) eluting with 20 mM KH2PO4 (pH 7.0): CH3CN=96:4 at 1.0 ml/minute at 60° C. using an ultraviolet wave length of 300 nm. The remaining percentages of these compounds were calculated from the remaining amount of them and show in Tables 1-4.

A short description of data set [2]: Stability test in desiccator at 60° C. in which silica gel was placed (HPLC remaining amount). Format: physicochemical. Particulars: desiccator at 60° C. with silica gel. As to the method: as §1
The subject of data set [3] is Klebisella pneumoniae 806. The data set is described as follows: Antibiotic activity test, agar-plate dilution method. Format: cell-based. As to the method:
(§2) The MIC (μg/ml), the lowest concentration of antibiotic which inhibits growth of the test bacterial strain, was determined by the agar-plate dilution method. The crystalline compounds obtained in Example 1, 2, 4 and 5 of this invention were evaluated against various bacterial strains by determining the MIC of each compound with respect to each strain.

Another data set deals with Serratia marcescens 1184. Described as above. Format: cell-based. As to the method: as §2
Data set [4] concerns Staphylococcus aureus 209P. Described as above. Format: cell-based. The method, then: as §2
The test system of another data set is Enterobacter cloacae 963. Described as above. Format: cell-based. As to the method:
as §2

For data set [5], the system named is Pseudomonas aeruginosa 1001. Described as above. Format: cell-based. The method, then: as §2
The next data set concerns Escherichia coli NIHJ. The description is as above. Format: cell-based. As to the method:
as §2

Another data set relates to S. aureus 535 (MRSA). Described as above. Format: cell-based, Staphylococcus aureus. The method, then:
as §2

The next data set relates to E. coli 609. The data set is described as above. Format: cell-based, Escherichia coli. As to the method:
as §2

The next data set concerns K. pneumoniae 846. The data set is described as above. Format: cell-based, Klebisella pneumoniae. The method, then:
as §2

For `CCO.C[C@@H](O)[C@H]1C(=O)N2C(C(=O)O)=C(S[C@H]3C[C@@H](C(=O)N4CC[C@H](NC(=O)CNC(=N)N)C4)N(C)C3)[C@H](C)[C@H]12.C[C@@H](O)[C@H]1C(=O)N2C(C(=O)O)=C(S[C@H]3C[C@@H](C(=O)N4CC[C@H](NC(=O)CNC(=N)N)C4)N(C)C3)[C@H](C)[C@H]12` [Example 2, (1R,5S,6S)-2-[(2S,4S)-2-[(3S)-3-(2-Guanidinoacetylamino)pyrrolidin-1-ylcarbonyl]-1-methylpyrrolidin-4-ylthio]-6-[(1R)-1-hydroxyethyl]-1-methyl-1-carbapen-2-em-3-carboxylic Acid.1/2 Ethanol], the “Remaining percentage of compound” value worked out at 95.8% in [1] (After 20 days), 87.3% in [1] (After 56 days), 100.1% in data set [2] (After 21 days) and 96.8% in data set [2] (After 56 days). In addition, the “Antibiotic activity (MIC)” value in data set [3] was “≦0.01 μg/ml”; in the data set with Serratia marcescens 1184, “≦0.01 μg/ml”; in data set [4] it was “≦0.01 μg/ml”; in the data set on Enterobacter cloacae 963, 0.05 µg/mL; in [5], 0.2 µg/mL; in the data set with Escherichia coli NIHJ, “≦0.01 μg/ml”. In addition, the “Antibiotic activity (MIC)” value was 1.5 µg/mL in the data set on S. aureus 535 (MRSA), “≦0.01 μg/ml” in the data set on E. coli 609 and “≦0.01 μg/ml” with K. pneumoniae 846.

Turning to `C[C@@H](O)[C@H]1C(=O)N2C(C(=O)O)=C(S[C@H]3C[C@@H](C(=O)N4CC[C@H](NC(=O)CNC(=N)N)C4)N(C)C3)[C@H](C)[C@H]12` [Example 5, (1R,5S,6S)-2-[(2S,4S)-2-[(3S)-3-(2-Guanidinoacetylamino)pyrrolidin-1-ylcarbonyl]-1-methylpyrrolidin-4-ylthio]-6-[(1R)-1-hydroxyethyl]-1-methyl-1-carbapen-2-em-3-carboxylate.1/4 Ethanol.3/2 Hydrate], the “Remaining percentage of compound” value in data set [1] (After 7 days) is 98.9%; in [1] (After 28 days), 94.6%; in data set [1] (After 56 days, Hydrate), 83.2%; in data set [2] (After 7 days), 98.3%; in data set [2] (After 28 days) it was 97.0%; in data set [2] (After 56 days, Hydrate), 97.6%. Further, the “Antibiotic activity (MIC)” value was 0.39 µg/mL in data set [5] (Hydrate) and “≦0.01 μg/ml” in the data set with E. coli 609 (Hydrate).

Turning to `C[C@@H](O)[C@H]1C(=O)N2C(C(=O)O)=C(S[C@H]3C[C@@H](C(=O)N4CC[C@H](NC(=O)CNC(=N)N)C4)N(C)C3)[C@H](C)[C@H]12` [Example 4, (1R,5S,6S)-2-[(2S,4S)-2-[(3S)-3-(2-Guanidinoacetylamino)pyrrolidin-1-ylcarbonyl]-1-methylpyrrolidin-4-ylthio]-6-[(1R)-1-hydroxyethyl]-1-methyl-1-carbapen-2-em-3-carboxylic Acid], the “Remaining percentage of compound” value in data set [1] (After 20 days) came out at 99.4%; in [1] (After 56 days), 94.3%; in [2] (After 21 days), 100.4%; in [2] (After 56 days), 100.9%. The “Antibiotic activity (MIC)” value in [3] was “≦0.01 μg/ml”; with Serratia marcescens 1184, “≦0.01 μg/ml”; in data set [4] it was “≦0.01 μg/ml”; in the data set with Enterobacter cloacae 963, 0.05 µg/mL; in [5] it was 0.2 µg/mL; with Escherichia coli NIHJ, “≦0.01 μg/ml”. Moreover, the “Antibiotic activity (MIC)” value in the data set on S. aureus 535 (MRSA) was 1.5 µg/mL; in the data set with E. coli 609 it was 0.02 µg/mL; in the data set with K. pneumoniae 846, “≦0.01 μg/ml”.

Turning to `CCO.C[C@@H](O)[C@H]1C(=O)N2C(C(=O)O)=C(S[C@H]3C[C@@H](C(=O)N4CC[C@H](NC(=O)CNC(=N)N)C4)N(C)C3)[C@H](C)[C@H]12.O=C(O)O` [Example 1, (1R,5S,6S)-2-[(2S,4S)-2-[(3S)-3-(2-Guanidinoacetylamino)pyrrolidin-1-ylcarbonyl]-1-methylpyrrolidin-4-ylthio]-6-[(1R)-1-hydroxyethyl]-1-methyl-1-carbapen-2-em-3-carboxylic acid.1/2 Carbonate.1/2 Ethanol], the “Remaining percentage of compound” value in data set [1] (After 20 days) is reported as 98.5%; in data set [1] (After 56 days), 92.9%; in data set [2] (After 21 days), 98.5%; in data set [2] (After 56 days), 96.4%. Moreover, the “Antibiotic activity (MIC)” value was “≦0.01 μg/ml” in [3]; “≦0.01 μg/ml” in the data set on Serratia marcescens 1184; “≦0.01 μg/ml” in data set [4]; 0.05 µg/mL with Enterobacter cloacae 963; 0.2 µg/mL in data set [5]; “≦0.01 μg/ml” in the data set on Escherichia coli NIHJ. Also, the “Antibiotic activity (MIC)” value in the data set with S. aureus 535 (MRSA) is 1.5 µg/mL; with E. coli 609 it was 0.02 µg/mL; in the data set on K. pneumoniae 846 it was “≦0.01 μg/ml”.
